Counter-ions that a name gives are not always drawn.

For this test, the target named is IRE1α (Homo sapiens (Human), UniProt O75460, D688N). In words: IRE1α TR-FRET competition binding assay (IRE1α HTRF). The settings on record: TR-FRET competition binding to kinase domain of IRE1α. Here is the method: IRE1α TR-FRET Competition Binding Assay. The affinity of compound binding to the kinase domain of IRE1α was determined using a time-resolved fluorescence resonance energy transfer (TR-FRET) competition assay.
Sequence of IRE1α (O75460 547-977 D688N): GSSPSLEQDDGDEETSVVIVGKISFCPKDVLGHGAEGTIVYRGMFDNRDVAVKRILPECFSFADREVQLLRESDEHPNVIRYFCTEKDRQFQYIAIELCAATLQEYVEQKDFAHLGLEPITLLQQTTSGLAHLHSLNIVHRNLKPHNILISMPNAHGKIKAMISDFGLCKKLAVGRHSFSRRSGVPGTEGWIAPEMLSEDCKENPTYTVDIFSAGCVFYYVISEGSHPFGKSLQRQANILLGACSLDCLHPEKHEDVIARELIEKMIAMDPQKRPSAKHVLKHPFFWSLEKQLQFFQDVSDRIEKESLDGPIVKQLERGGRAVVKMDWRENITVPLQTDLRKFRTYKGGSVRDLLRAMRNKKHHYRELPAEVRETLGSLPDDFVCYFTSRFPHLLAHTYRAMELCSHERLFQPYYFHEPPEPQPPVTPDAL
The purified protein (final concentration 0.25 nM) was pre-incubated with anti-His Europium labeled antibody (Life Technologies PV5596, final concentration 2 nM) for one hour at 4° C. in TR-FRET Assay Buffer (50 mM HEPES, pH 7.5, 10 mM MgCl2, 0.083 mM Brij 35, 1 mM DTT, and 0.1% bovine gamma globulin) prior to addition to test compounds. An Alexa fluor 647-labeled probe based on an ATP competitive inhibitor was added to a final concentration of 2 nM. Reactions were carried out for one hour at room temperature in a final volume of 20 μL in 384 well white ProxiPlates (Perkin Elmer 6008289). Binding of the probe to the IRE1α protein was detected in an Envision instrument (PerkinElmer) equipped with a TRF laser option and a LANCE/Delfia Dual/Bias D400/D630 mirror (Ex 347 nm, 1st Em 665 nm, 2nd Em 615 nm).
As usually defined, the IC50 is the point on the concentration scale where inhibition reaches its midpoint. On to `CC(C)n1c(=O)c(-c2ccc(NS(=O)(=O)Cc3ccccc3)c(F)c2F)cc2cnc(N[C@@H]3CNC[C@@H](F)C3)nc21` [Compound 9, N-(2,3-Difluoro-4-(2-(((3S,5S)-5-fluoropiperidin-3-yl)amino)-8-isopropyl-7-oxo-7,8-dihydropyrido[2,3-d]pyrimidin-6-yl)phenyl)-1-phenylmethanesulfonamide], for which the IC50 worked out at 0.28 nM. The value for `O=c1c(-c2ccc(NS(=O)(=O)Cc3ccccc3)c(F)c2F)cc2cnc(N[C@@H]3CNC[C@@H](F)C3)nc2n1C1CC1` [Compound 10, N-(4-(8-cyclopropyl-2-(((3S,5S)-5-fluoropiperidin-3-yl)amino)-7-oxo-7,8-dihydropyrido[2,3-d]pyrimidin-6-yl)-2,3-difluorophenyl)-1-phenylmethanesulfonamide] was 1.1 nM. The value for `O=c1c(-c2ccc(NS(=O)(=O)Cc3ccccc3)c(F)c2F)cc2cnc(N[C@@H]3CNC[C@@H](F)C3)nc2n1CC(F)F` [Compound 11, N-(4-(8-(2,2-Difluoroethyl)-2-(((3S,5S)-5-fluoropiperidin-3-yl)amino)-7-oxo-7,8-dihydropyrido[2,3-d]pyrimidin-6-yl)-2,3-difluorophenyl)-1-phenylmethanesulfonamide] was 1.1 nM; that for `CCn1c(=O)c(-c2ccc(NS(=O)(=O)Cc3ccccc3)c(F)c2F)cc2cnc(N[C@@H]3CNC[C@@H](F)C3)nc21` [Compound 12, N-(4-(8-Ethyl-2-(((3S,5S)-5-fluoropiperidin-3-yl)amino)-7-oxo-7,8-dihydropyrido[2,3-d]pyrimidin-6-yl)-2,3-difluorophenyl)-1-phenylmethanesulfonamide] was 0.57 nM; that for `CCCS(=O)(=O)Nc1ccc(-c2cc3cnc(N[C@@H]4CNC[C@@H](F)C4)nc3n(CC)c2=O)c(F)c1F` [Compound 13, N-(4-(8-Ethyl-2-(((3S,5S)-5-fluoropiperidin-3-yl)amino)-7-oxo-7,8-dihydropyrido[2,3-d]pyrimidin-6-yl)-2,3-difluorophenyl)propane-1-sulfonamide] was 8.3 nM. Compound `CCn1c(=O)c(-c2ccc(NS(=O)(=O)CCC(F)(F)F)c(F)c2F)cc2cnc(N[C@@H]3CNC[C@@H](F)C3)nc21` [Compound 14, N-(4-(8-Ethyl-2-(((3S,5S)-5-fluoropiperidin-3-yl)amino)-7-oxo-7,8-dihydropyrido[2,3-d]pyrimidin-6-yl)-2,3-difluorophenyl)-3,3,3-trifluoropropane-1-sulfonamide] yielded an IC50 of 5 nM. To `CCn1c(=O)c(-c2cc(F)c(NS(=O)(=O)Cc3ccccc3)c(F)c2F)cc2cnc(N[C@@H]3CNC[C@@H](F)C3)nc21` [Compound 15, N-(4-(8-Ethyl-2-(((3S,5S)-5-fluoropiperidin-3-yl)amino)-7-oxo-7,8-dihydropyrido[2,3-d]pyrimidin-6-yl)-2,3,6-trifluorophenyl)-1-phenylmethanesulfonamide] belongs 0.21 nM; to `CC(C)n1c(=O)c(-c2cccc(NS(=O)(=O)Cc3ccccc3)c2F)cc2cnc(N[C@H]3CCCNC3)nc21` [Compound 16, (S)—N-(2-Fluoro-3-(8-isopropyl-7-oxo-2-(piperidin-3-ylamino)-7,8-dihydropyrido[2,3-d]pyrimidin-6-yl)phenyl)-1-phenylmethanesulfonamide], 5.8 nM. To `CC(C)n1c(=O)c(-c2ccc(F)c(NS(=O)(=O)Cc3ccccc3)c2)cc2cnc(N[C@H]3CCCNC3)nc21` [Compound 17, (S)—N-(2-Fluoro-5-(8-isopropyl-7-oxo-2-(piperidin-3-ylamino)-7,8-dihydropyrido[2,3-d]pyrimidin-6-yl)phenyl)-1-phenylmethanesulfonamide hydrochloride] belongs 11 nM; to `O=c1c(-c2ccc(NS(=O)(=O)Cc3ccccc3)c(F)c2F)cc2cnc(N[C@@H]3CNC[C@@H](F)C3)nc2n1C1CCCC1` [Compound 18, N-(4-(8-Cyclopentyl-2-(((3S,5S)-5-fluoropiperidin-3-yl)amino)-7-oxo-7,8-dihydropyrido[2,3-d]pyrimidin-6-yl)-2,3-difluorophenyl)-1-phenylmethanesulfonamide], 0.41 nM; to `CC(C)n1c(=O)c(-c2ccc(F)c(NS(=O)(=O)Cc3ccccc3)c2F)cc2cnc(N[C@H]3CCCNC3)nc21` [Compound 19, (S)—N-(2,6-Difluoro-3-(8-isopropyl-7-oxo-2-(piperidin-3-ylamino)-7,8-dihydropyrido[2,3-d]pyrimidin-6-yl)phenyl)-1-phenylmethanesulfonamide], 2.2 nM. The value for `CC(C)Nc1ncc2cc(-c3cc(F)c(NS(=O)(=O)Cc4ccccc4)c(F)c3F)c(=O)n(C(C)C)c2n1` [Compound 20, 1-Phenyl-N-(2,3,6-trifluoro-4-(8-isopropyl-2-(isopropylamino)-7-oxo-7,8-dihydropyrido[2,3-d]pyrimidin-6-yl)phenyl)methanesulfonamide] was 1.2 nM; that for `CC(C)Nc1ncc2cc(-c3cc(F)c(NS(=O)(=O)CCC(F)(F)F)c(F)c3F)c(=O)n(C(C)C)c2n1` [Compound 21, 3,3,3-Trifluoro-N-(2,3,6-trifluoro-4-(8-isopropyl-2-(isopropylamino)-7-oxo-7,8-dihydropyrido[2,3-d]pyrimidin-6-yl)phenyl)propane-1-sulfonamide] was 16 nM; that for `CC(C)n1c(=O)c(-c2cc(F)c(NS(=O)(=O)Cc3ccccc3)c(F)c2F)cc2cnc(N[C@H]3CC[C@H](N(C)C)CC3)nc21` [Compound 24, N-(4-(2-(((1r,4r)-4-(Dimethylamino)cyclohexyl)amino)-8-isopropyl-7-oxo-7,8-dihydropyrido[2,3-d]pyrimidin-6-yl)-2,3,6-trifluorophenyl)-1-phenylmethanesulfonamide] was 2.7 nM. For `CC(C)n1c(=O)c(-c2cc(F)c(NS(=O)(=O)CCC(F)(F)F)c(F)c2F)cc2cnc(N[C@H]3CC[C@H](N(C)C)CC3)nc21` [Compound 25, N-(4-(2-(((1r,4r)-4-(Dimethylamino)cyclohexyl)amino)-8-isopropyl-7-oxo-7,8-dihydropyrido[2,3-d]pyrimidin-6-yl)-2,3,6-trifluorophenyl)-3,3,3-trifluoropropane-1-sulfonamide], the half-maximal inhibitory concentration (IC50) is 0.33 nM. The value for `CC(C)n1c(=O)c(-c2cc(F)c(NS(=O)(=O)Cc3ccccc3)c(F)c2F)cc2cnc(N[C@@H]3CNC[C@@H](F)C3)nc21` [Compound 26, 1-Phenyl-N-(2,3,6-trifluoro-4-(2-(((3S,5S)-5-fluoropiperidin-3-yl)amino)-8-isopropyl-7-oxo-7,8-dihydropyrido[2,3-d]pyrimidin-6-yl)phenyl)methanesulfonamide] was 0.19 nM; that for `CC(C)n1c(=O)c(-c2cc(F)c(NS(=O)(=O)Cc3ccccc3)c(F)c2F)cc2cnc(N[C@@H]3CNC[C@@](C)(F)C3)nc21` [Compound 27, 1-Phenyl-N-(2,3,6-trifluoro-4-(2-(((3S,5S)-5-fluoro-5-methylpiperidin-3-yl)amino)-8-isopropyl-7-oxo-7,8-dihydropyrido[2,3-d]pyrimidin-6-yl)phenyl)methanesulfonamide] was 0.22 nM; that for `O=c1c(-c2cc(F)c(NS(=O)(=O)Cc3ccccc3)c(F)c2F)cc2cnc(N[C@@H]3CNC[C@@H](F)C3)nc2n1C1CCC1` [Compound 28, N-(4-(8-Cyclobutyl-2-(((3S,5S)-5-fluoropiperidin-3-yl)amino)-7-oxo-7,8-dihydropyrido[2,3-d]pyrimidin-6-yl)-2,3,6-trifluorophenyl)-1-phenylmethanesulfonamide] was 0.19 nM. To `CC(C)n1c(=O)c(-c2cc(F)c(NS(=O)(=O)Cc3ccc(C#N)cc3)c(F)c2F)cc2cnc(N[C@@H]3CNC[C@@H](F)C3)nc21` [Compound 29, 1-(4-Cyanophenyl)-N-(2,3,6-trifluoro-4-(2-(((3S,5S)-5-fluoropiperidin-3-yl)amino)-8-isopropyl-7-oxo-7,8-dihydropyrido[2,3-d]pyrimidin-6-yl)phenyl)methanesulfonamide] belongs 0.21 nM; to `CC(C)n1c(=O)c(-c2cc(F)c(NS(=O)(=O)Cc3cccc(C#N)c3)c(F)c2F)cc2cnc(N[C@@H]3CNC[C@@H](F)C3)nc21` [Compound 30, 1-(3-Cyanophenyl)-N-(2,3,6-trifluoro-4-(2-(((3S,5S)-5-fluoropiperidin-3-yl)amino)-8-isopropyl-7-oxo-7,8-dihydropyrido[2,3-d]pyrimidin-6-yl)phenyl)methanesulfonamide], 0.21 nM. To `COc1cccc(CS(=O)(=O)Nc2c(F)cc(-c3cc4cnc(N[C@@H]5CNC[C@@H](F)C5)nc4n(C(C)C)c3=O)c(F)c2F)c1` [Compound 31, 1-(3-Methoxyphenyl)-N-(2,3,6-trifluoro-4-(2-(((3S,5S)-5-fluoropiperidin-3-yl)amino)-8-isopropyl-7-oxo-7,8-dihydropyrido[2,3-d]pyrimidin-6-yl)phenyl)methanesulfonamide hydrochloride] belongs 0.11 nM; to `CC(C)n1c(=O)c(-c2cc(F)c(NS(=O)(=O)Cc3ccccc3C#N)c(F)c2F)cc2cnc(N[C@@H]3CNC[C@@H](F)C3)nc21` [Compound 32, 1-(2-Cyanophenyl)-N-(2,3,6-trifluoro-4-(2-(((3S,5S)-5-fluoropiperidin-3-yl)amino)-8-isopropyl-7-oxo-7,8-dihydropyrido[2,3-d]pyrimidin-6-yl)phenyl)methanesulfonamide], 0.34 nM.

These data come from US12344603B2 (Genentech, Inc., priority 2020, dated 2025).
